{"source": "patent US20090263470A1", "about": "“Vaccine Compositions Comprising Virosomes and a Saponin Adjuvant” (priority 2004, published 2009)", "key": {"red blood cells [1]": {"test_system": "red blood cells", "experiment": "Lytic activity of QS21 alone versus QS21 in the Inflexal V formulation against red blood cells, OD at 540 nm", "format": "cell-based", "conditions": "equivalent of 2.5 μg QS21 in 900 μl PBS pH 7.4 + 100 μl red blood cells, 30 minutes at RT", "experimental": "500 μl Inflexal V® vaccine, has been adjuvanted by the addition of 50 μg QS21. The resulting composition of this mixture is: +/−117 μg of Lecithin, 45 μg HA, 50 μg QS21 in 525 μl. The lytic activity of QS21 in this formulation has been compared to the lytic activity of QS21 alone.\nPractically, a volume of the formulation “Inflexal V+QS21” containing the equivalent of 2.5 μg of QS21 is added to PBS pH 7.4 to reach a final volume of 900 μl. In parallel, 2.5 μg QS21 is taken and also diluted to 900 μl with PBS.\n100 μl of red blood cells (10× diluted) are added to those 2 samples as described above. Samples are let for 30 minutes at RT. After centrifugation at 2000 rpm, the OD of the supernatant is red at 540 nm."}, "red blood cells [2]": {"test_system": "red blood cells", "conditions": "OD at 540 nm"}, "[3]": {"conditions": "QS21 injected parenterally as a free molecule; cited from earlier work"}}, "note": "Where two headings read alike, the source gives them in different places.", "data": [{"substance": "QS21", "values": [{"measurement": "OD", "setting": "red blood cells [1]", "value": 1.63}, {"measurement": "OD", "setting": "red blood cells [2]; 1 μg QS21", "value": 0.217}, {"measurement": "OD", "setting": "red blood cells [2]; 1.5 μg QS21", "value": 0.631}, {"measurement": "OD", "setting": "red blood cells [2]; 2.5 μg QS21", "value": 0.891}, {"measurement": "injection site observation", "setting": "[3]", "value": "necrosis"}]}]}
